From patent US7223759B2, “Antibacterial 3,5-diaminopiperidine-substituted aromatic and heteroaromatic compounds” (Anadys Pharmaceuticals, Inc., priority 2003, dated 2007)
Where two headings read alike, the source gives them in different places.

System: Escherichia coli (ATCC25922) or Staphylococcus aureus (ATCC25923)
Assay: Antibacterial MIC, microdilution method in Mueller-Hinton medium
Type: cell-based
Conditions: for MIC: Escherichia coli, 18 h, read-out: Potency (MIC)
Description: The antibacterial activity of the Formula I compounds was evaluated against standard bacterial strains by determining the minimal inhibitory concentration (MIC) to block growth. Each drug was assayed by the microdilution method in Mueller-Hinton medium, as recommended by the National Committee for Clinical Laboratory Standards. Approved Standard M7-A5: Methods for Dilution Antimicrobial Susceptibility Tests for Bacteria That Grow Aerobically 5th Ed. (National Committee for Clinical Laboratory Standards, Wayne, Pa., 2000). The tested bacterial strains included Escherichia coli (American Type Collection ATCC25922), Staphylococcus aureus (ATCC25923), and Pseudomonas aeruginosa (ATCC27853). Two-fold serial dilutions of each compound ranging from 64 to 0.5 μg/ml were tested in duplicate. The MIC was determined as the lowest concentration of each compound that prevented bacterial growth after 18 hours of incubation at 35° C. […] The mass of each compound in the Table was confirmed by LC-MS.

[1] = MIC in E. coli or S. aureus, two-fold serial dilutions 64 to 0.5 μg/ml in duplicate, 18 hours of incubation at 35° C.

Structure (SMILES) | MIC | other results
Cl.Nc1ccc(S(=O)(=O)Nc2ccc(Nc3nc(N4CCCCC4)nc(N4CCCCC4)n3)cc2O)cc1 [N-[4-(4-amino-benzenesulfonylamino)-3-hydroxy-phenyl]-4,6-Bis-((3R,5S)-33,5-diamino-piperidin-1-yl)-[1,3,5]triazine-2-amine] |  | MIC [1]: < 64 µg/mL
N[C@@H]1C[C@H](N)CN(c2nc(Nc3ccc(NC(=O)c4ccc(Cl)cc4O)c(Cl)c3)nc(N3C[C@H](N)C[C@H](N)C3)n2)C1 [N-[3-chloro-4-(4-chloro-2-hydroxy-benzoylamino)-phenyl]-4,6-Bis-((3R,5S)-3,5-diamino-piperidin-1-yl)-[1,3,5]triazine-2-amine] | < 16 µg/mL | 
N[C@@H]1C[C@H](N)CN(c2nc(Nc3ccc(C(=O)Nc4ccccc4)cc3)nc(N3C[C@H](N)C[C@H](N)C3)n2)C1 [N-(4-phenylcarbamoyl-phenyl)-4,6-Bis-((3R,5S)-3,5-diamino-piperidin-1-yl)-[1,3,5]triazine-2-amine] |  | MIC [1]: > 64 µg/mL
Cc1ccc2nc(-c3ccc(Nc4nc(N5C[C@H](N)C[C@H](N)C5)nc(N5C[C@H](N)C[C@H](N)C5)n4)cc3)sc2c1 [N-[4-(6-methyl-benzothiazol-2-yl)-phenyl]-4,6-Bis-((3R,5S)-3,5-diamino-piperidin-1-yl)-[1,3,5]triazine-2-amine] | < 16 µg/mL | 
COc1cc2c(cc1Nc1nc(N3C[C@H](N)C[C@H](N)C3)nc(N3C[C@H](N)C[C@H](N)C3)n1)oc1ccccc12 [N-(2-methoxy-dibenzofuran-3-yl)-4,6-Bis-((3R,5S)-3,5-diamino-piperidin-1-yl)-[1,3,5]triazine-2-amine] | < 64 µg/mL | 
N[C@@H]1C[C@H](N)CN(c2nc(NCc3ccc4c(c3)OCO4)nc(N3C[C@H](N)C[C@H](N)C3)n2)C1 [N-benzo[1,3]dioxol-5-ylmethyl-4,6-Bis-((3R,5S)-3,5-diamino-piperidin-1-yl)-[1,3,5]triazine-2-amine] | > 64 µg/mL | 
N[C@@H]1C[C@H](N)CN(c2nc(Nc3ccc(C(=O)Nc4ccc(S(=O)(=O)Nc5ccc6cn[nH]c6c5)cc4)c(O)c3)nc(N3C[C@H](N)C[C@H](N)C3)n2)C1 [N-(3-hydroxy-4-[4-(1H-indazol-6-ylsulfamoyl)-phenylcarbamoyl]-phenyl)-4,6-Bis-((3R,5S)-3,5-diamino-piperidin-1-yl)-[1,3,5]triazine-2-amine] | < 64 µg/mL | 
N[C@@H]1C[C@H](N)CN(c2nc(Nc3ccc(NC(=O)c4ccc(Cl)cc4)c(O)c3)nc(NC3CCNCC3)n2)C1 | < 16 µg/mL | 
Cl.N[C@@H]1C[C@H](N)CN(c2nc(Nc3cccc(C(F)(F)F)c3)nc(N3C[C@H](N)C[C@H](N)C3)n2)C1 [N-(3-trifluoromethyl-phenyl)-4,6-Bis-((3R,5S)-3,5-diamino-piperidin-1-yl)-[1,3,5]triazine-2-amine] |  | MIC [1]: < 64 µg/mL
Cc1ccc(S(=O)(=O)N(Cc2ccccc2)c2ccc(Nc3nc(N4C[C@H](N)C[C@H](N)C4)nc(N4CC[C@H](O)[C@H](CN)C4)n3)c(O)c2)cc1 [N-{4-[4-((3R,4S)-3-Aminomethyl-4-hydroxy-piperidin-1-yl)-6-((3R,5S)-3,5-diamino-piperidin-1-yl)-[1,3,5]triazin-2-ylamino]-3-hydroxy-phenyl}-N-benzyl-4-methyl-benzenesulfonamide] | < 64 µg/mL | 
Cc1cc(=O)oc2cc(Nc3nc(N4C[C@H](N)C[C@H](N)C4)nc(N4CC[C@H](O)[C@H](CN)C4)n3)ccc12 [7-[4-((3R,4S)-3-Aminomethyl-4-hydroxy-piperidin-1-yl)-6-((3R,5S)-3,5-diamino-piperidin-1-yl)-[1,3,5]triazin-2-ylamino]-4-methyl-chromen-2-one] | > 64 µg/mL | 
Cc1nc(NS(=O)(=O)c2ccc(Nc3nc(N4C[C@H](N)C[C@H](N)C4)nc(N4C[C@H](N)C[C@H](N)C4)n3)cc2)oc1C [N-[4-(4,5-dimethyl-oxazol-2-ylsulfamoyl)-phenyl]-4,6-Bis-((3R,5S)-3,5-diamino-piperidin-1-yl)-[1,3,5]triazin-2-amine] | > 64 µg/mL | 
N[C@@H]1C[C@H](N)CN(c2nc(Nc3ccc(C(=O)Nc4ccc5[nH]cnc5c4)c(O)c3)nc(N3C[C@H](N)C[C@H](N)C3)n2)C1 [N-[4-(1H-benzoimidazol-5-ylcarbamoyl)-3-hydroxy-phenyl]-4,6-Bis-((3R,5S)-3,5-diamino-piperidin-1-yl)-[1,3,5]triazine-2-amine] | < 16 µg/mL | 
Cc1ccc(S(=O)(=O)N(Cc2ccccc2)c2ccc(Nc3nc(N4C[C@H](N)C[C@H](N)C4)nc(N4CCC[C@@H](O)C4)n3)c(O)c2)cc1 [N-Benzyl-N-{4-[4-((3R,5S)-3,5-diamino-piperidin-1-yl)-6-((R)-3-hydroxy-piperidin-1-yl)-[1,3,5]triazin-2-ylamino]-3-hydroxy-phenyl}-4-methyl-benzenesulfonamide] | < 64 µg/mL | 
CCN(c1ccc(Nc2nc(N3C[C@H](N)C[C@H](N)C3)nc(N3C[C@H](N)C[C@H](N)C3)n2)cc1)C(C)C [N-[4-(ethyl-isopropyl-amino)-phenyl]-4,6-Bis-((3R,5S)-3,5-diamino-piperidin-1-yl)-[1,3,5]triazine-2-amine] | > 64 µg/mL | 
N[C@@H]1C[C@H](N)CN(c2nc(Nc3ccc4ccc5cccc6ccc3c4c56)nc(N3C[C@H](N)C[C@H](N)C3)n2)C1 [N-pyren-1-yl-4,6-Bis-((3R,5S)-3,5-diamino-piperidin-1-yl)-[1,3,5]triazine-2-amine] |  | MIC [1]: < 16 µg/mL
COc1ccc(NC(=O)c2ccc(O)cc2O)c(Nc2nc(N3C[C@H](N)C[C@H](N)C3)nc(N3C[C@H](N)C[C@H](N)C3)n2)c1 [N-[2-(2,4-dihydroxy-benzoylamino)-5-methoxy-phenyl]-4,6-Bis-((3R,5S)-3,5-diamino-piperidin-1-yl)-[1,3,5]triazine-2-amine] | > 64 µg/mL | 
NC[C@@H]1C[C@@H](O)CN1c1nc(Nc2ccc(S(=O)(=O)Nc3ccc4cn[nH]c4c3)cc2)nc(N2C[C@H](N)C[C@H](N)C2)n1 [4-[4-((2S,4R)-2-Aminomethyl-4-hydroxy-pyrrolidin-1-yl)-6-((3R,5S)-3,5-diamino-piperidin-1-yl)-[1,3,56]triazin-2-ylamino]-N-(1H-indazol-6-yl)-benzenesulfonamide] |  | Potency (MIC) [1]: − (− means MIC>64 μg/ml in E. coli or S. aureus)
N[C@@H]1C[C@H](N)CN(c2nc(Nc3ccc(C(=O)CC(=O)Nc4cccc(Cl)c4)cc3)nc(N3C[C@H](N)C[C@H](N)C3)n2)C1 [N-{4-[2-(3-chloro-phenylcarbamoyl)-acetyl]-phenyl}-4,6-Bis-((3R,5S)-3,5-diamino-piperidin-1-yl)-[1,3,5]triazine-2-amine] | < 16 µg/mL | 
Cl.NS(=O)(=O)c1ccc(NC(=O)CC(=O)c2ccc(Nc3nc(N4CCCCC4)nc(N4CCCCC4)n3)cc2)cc1 [N-{4-[2-(4-sulfamoyl-phenylcarbamoyl)-acetyl]-phenyl}-44,6-Bis-((3R,5S)-3,5-diamino-piperidin-1-yl)-[1,3,5]triazine-2-amine] |  | MIC [1]: < 64 µg/mL
Cc1ccc(S(=O)(=O)N(Cc2ccccc2)c2ccc(NC(=O)c3ccc(Nc4nc(N5C[C@H](N)C[C@H](N)C5)nc(N5C[C@H](N)C[C@H](N)C5)n4)cc3O)cc2O)cc1 [N-(4-{4-[benzyl-(toluene-4-sulfonyl)-amino]-3-hydroxy-phenylcarbamoyl)-3-hydroxy-phenyl)-4,6-Bis-((3R,5S)-3,5-diamino-piperidin-1-yl)-[1,3,5]triazine-2-amine] | < 16 µg/mL | 
N[C@@H]1C[C@H](N)CN(c2cc(N3C[C@H](N)C[C@H](N)C3)cc(N(c3ccc([N+](=O)[O-])cc3)c3ccc([N+](=O)[O-])cc3)c2)C1 [(3,5-Bis-((3R,5S)-3,5-diamino-piperidin-1-yl)-phenyl)-bis-(4-nitro-phenyl)-amine] |  | MIC [1]: < 64 µg/mL
Cc1cc(NS(=O)(=O)c2ccc(Nc3nc(N4C[C@H](N)C[C@H](N)C4)nc(N4C[C@H](N)C[C@H](N)C4)n3)cc2)nc(C)n1.Cl [N-[4-(2,6-dimethyl-pyrimidin-4-ylsulfamoyl)-phenyl]-4,6-Bis-((3R,5S)-3,5-diamino-piperidin-1-yl)-[1,3,5]triazine-2-amine] |  | MIC [1]: > 64 µg/mL
N[C@@H]1C[C@H](N)CN(c2nc(Nc3ccc(NC(=O)c4ccc(Cl)cc4)c(O)c3)nc(N3C[C@H](N)C[C@H](N)C3)n2)C1 [N-[4-(4-chloro-benzoylamino)-3-hydroxy-phenyl]-4,6-Bis-((3R,5S)-3,5-diamino-piperidin-1-yl)-[1,3,5]triazine-2-amine] | < 16 µg/mL | 
NCc1ccc(NC(=O)CC(=O)c2ccc(Nc3nc(N4C[C@H](N)C[C@H](N)C4)nc(N4C[C@H](N)C[C@H](N)C4)n3)cc2)cc1 [N-{4-[2-(4-aminomethyl-phenylcarbamoyl)-acetyl]-phenyl}-4,6-Bis-((3R,5S)-3,5-diamino-piperidin-1-yl)-[1,3,5]triazine-2-amine] | > 64 µg/mL | 
CCOc1ccc(C(=O)Nc2ccc(Nc3nc(N4CCCCC4)nc(N4CCCCC4)n3)cc2O)cc1.Cl [N-[4-(4-ethoxy-benzoylamino)-3-hydroxy-phenyl]-4,6-Bis-((3R,5S)-3,5-diamino-piperidin-1-yl)-1,3,5]triazine-2-amine] |  | MIC [1]: < 16 µg/mL
COc1nc(Nc2ccc(S(=O)(=O)Nc3ccc4cn[nH]c4c3)cc2)nc(N2C[C@H](N)C[C@H](N)C2)n1 [4-[4-((3R,5S)-3,5-Diamino-piperidin-1-yl)-6-methoxy-[1,3,5]triazin-2-ylamino]-N-(1H-indazol-6-yl)-benzenesulfonamide] | > 64 µg/mL | 
